Measured values as given in ChEMBL document CHEMBL1201861, “Genomics of Drug Sensitity in Cancer screening data, Wellcome Trust Sanger Institute”.
Blank lines part the entries; values can stand above or below the compound they belong to.

What was measured:
[1] = tested on: SK-MES-1; test: cells; type: functional, cell-based; details: Homo sapiens;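 also: growth inhibition of human SK-MES-1 cells, read out with a cell viability assay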
Description: SANGER: Inhibition of human SK-MES-1 cell growth in a cell viability assay.

[2] = tested on: SW1573; test: cells; type: functional, cell-based; details: Homo sapiens;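 also: growth inhibition of SW1573 cells, read out with a cell viability assay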
Description: SANGER: Inhibition of human SW1573 cell growth in a cell viability assay.

[3] = tested on: CAL-33; test: cells; type: functional, cell-based; details: Homo sapiens;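 also: growth inhibition of CAL-33 cells, read out with a cell viability assay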
Description: SANGER: Inhibition of human CAL-33 cell growth in a cell viability assay.

[4] = tested on: RCM-1; test: cells; type: functional, cell-based; details: Homo sapiens;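 also: growth inhibition of the RCM-1 line, determined with a cell viability readout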
Description: SANGER: Inhibition of human RCM-1 cell growth in a cell viability assay.

[5] = tested on: HMV-2 cell line; test: cells; type: functional, cell-based; details: Homo sapiens;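 also: growth inhibition of HMV-II cells, read out with a cell viability assay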
Description: SANGER: Inhibition of human HMV-II cell growth in a cell viability assay.

[6] = tested on: KNS-62; test: cells; type: functional, cell-based; details: Homo sapiens;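 also: inhibition of cell growth, read out with a cell viability assay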
Description: SANGER: Inhibition of human KNS-62 cell growth in a cell viability assay.

[7] = tested on: SK-OV-3; test: cells; type: functional, cell-based; details: Homo sapiens;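 also: growth inhibition of SK-OV-3 human cells, read out with a cell viability assay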
Description: SANGER: Inhibition of human SK-OV-3 cell growth in a cell viability assay.

[8] = tested on: H-EMC-SS; test: cells; type: functional, cell-based; details: Homo sapiens
Description: SANGER: Inhibition of human H-EMC-SS cell growth in a cell viability assay.

[9] = tested on: GCT; test: cells; type: functional, cell-based; details: Homo sapiens;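 also: GCT cell line proliferation inhibition, read out with a cell viability assay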
Description: SANGER: Inhibition of human GCT cell growth in a cell viability assay.

[10] = tested on: ZR-75-30; test: cells; type: functional, cell-based; details: Homo sapiens;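 also: growth inhibition of ZR-75-30 cells, measured with a cell viability readout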
Description: SANGER: Inhibition of human ZR-75-30 cell growth in a cell viability assay.

[11] = tested on: OC-314; test: cells; type: functional, cell-based; details: Homo sapiens
Description: SANGER: Inhibition of human OC-314 cell growth in a cell viability assay.

[12] = tested on: MG-63; test: cells; type: functional, cell-based; details: Homo sapiens;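 also: growth inhibition of human MG-63 cells, read out with a cell viability assay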
Description: SANGER: Inhibition of human MG-63 cell growth in a cell viability assay.

[13] = tested on: NCI-H358; test: cells; type: functional, cell-based; details: Homo sapiens;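 also: growth inhibition of NCI-H358 human cells, read out with a cell viability assay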
Description: SANGER: Inhibition of human NCI-H358 cell growth in a cell viability assay.

[14] = tested on: HPAF-II; test: cells; type: functional, cell-based; details: Homo sapiens;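 also: growth inhibition of HPAF-II cells, read out with a cell viability assay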
Description: SANGER: Inhibition of human HPAF-II cell growth in a cell viability assay.

[15] = tested on: PANC-08-13; test: cells; type: functional, cell-based; details: Homo sapiens
Description: SANGER: Inhibition of human PANC-08-13 cell growth in a cell viability assay.

[16] = tested on: NB14; test: cells; type: functional, cell-based, Homo sapiens; details: Homo sapiens, NB14;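 also: growth inhibition of NB14 cells measured with a cell viability assay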
Description: SANGER: Inhibition of human NB14 cell growth in a cell viability assay.

[17] = tested on: BT-549; test: cells; type: functional, cell-based; details: Homo sapiens
Description: SANGER: Inhibition of human BT-549 cell growth in a cell viability assay.

[18] = tested on: TGBC11TKB; test: cells; type: functional, cell-based; details: Homo sapiens;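 also: growth inhibition of human TGBC11TKB cells, measured by a cell viability assay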
Description: SANGER: Inhibition of human TGBC11TKB cell growth in a cell viability assay.

[19] = tested on: OVCAR-8; test: cells; type: functional, cell-based; details: Homo sapiens;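 also: growth inhibition of human OVCAR-8 cells, read out by a cell viability assay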
Description: SANGER: Inhibition of human OVCAR-8 cell growth in a cell viability assay.

[20] = tested on: NCI-H520; test: cells; type: functional, cell-based; details: Homo sapiens;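 also: growth inhibition of NCI-H520 cells, measured by a cell viability assay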
Description: SANGER: Inhibition of human NCI-H520 cell growth in a cell viability assay.

[21] = tested on: H4; test: cells; type: functional, cell-based; details: Homo sapiens
Description: SANGER: Inhibition of human H4 cell growth in a cell viability assay.

[22] = tested on: 647-V; test: cells; type: functional, cell-based; details: Homo sapiens;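 also: growth inhibition of 647-V cells, read out with a cell viability assay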
Description: SANGER: Inhibition of human 647-V cell growth in a cell viability assay.

[23] = tested on: C32; test: cells; type: functional, cell-based; details: Homo sapiens;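 also: cell viability assay, with IC50 reflecting inhibition of C32 cell growth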
Description: SANGER: Inhibition of human C32 cell growth in a cell viability assay.

[24] = tested on: HT-3; test: cells; type: functional, cell-based; details: Homo sapiens;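 also: growth inhibition measured with a cell viability readout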
Description: SANGER: Inhibition of human HT-3 cell growth in a cell viability assay.

[25] = tested on: NBsusSR; test: cells; type: functional, cell-based; details: Homo sapiens;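 also: growth inhibition of the human cell line, read out with a cell viability assay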
Description: SANGER: Inhibition of human NBsusSR cell growth in a cell viability assay.

[26] = tested on: NCI-H460; test: cells; type: functional, cell-based; details: Homo sapiens;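 also: cell viability assay scoring growth inhibition of human NCI-H460 cells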
Description: SANGER: Inhibition of human NCI-H460 cell growth in a cell viability assay.

[27] = tested on: HC-1; test: cells; type: functional, cell-based, Homo sapiens; details: Homo sapiens, HC-1;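 also: growth inhibition of HC-1 cells measured by a cell viability assay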
Description: SANGER: Inhibition of human HC-1 cell growth in a cell viability assay.

[28] = tested on: D-423MG; test: cells; type: functional, cell-based; details: Homo sapiens
Description: SANGER: Inhibition of human D-423MG cell growth in a cell viability assay.

[29] = tested on: CHP-212; test: cells; type: functional, cell-based; details: Homo sapiens
Description: SANGER: Inhibition of human CHP-212 cell growth in a cell viability assay.

[30] = tested on: KYSE-270; test: cells; type: functional, cell-based; details: Homo sapiens;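 also: cell growth inhibition measured with a viability assay in the human KYSE-270 line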
Description: SANGER: Inhibition of human KYSE-270 cell growth in a cell viability assay.

[31] = tested on: VMRC-RCZ; test: cells; type: functional, cell-based; details: Homo sapiens
Description: SANGER: Inhibition of human VMRC-RCZ cell growth in a cell viability assay.

[32] = tested on: BHY; test: cells; type: functional, cell-based; details: Homo sapiens;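 also: cell growth inhibition read out by a viability assay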
Description: SANGER: Inhibition of human BHY cell growth in a cell viability assay.

[33] = tested on: NCI-H2228; test: cells; type: functional, cell-based; details: Homo sapiens;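 also: growth inhibition of human NCI-H2228 cells, read out by a cell viability assay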
Description: SANGER: Inhibition of human NCI-H2228 cell growth in a cell viability assay.

[34] = tested on: ECC10; test: cells; type: functional, cell-based; details: Homo sapiens;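 also: growth inhibition of ECC10 cells, read out by a cell viability assay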
Description: SANGER: Inhibition of human ECC10 cell growth in a cell viability assay.

[35] = tested on: CAPAN-1; test: cells; type: functional, cell-based; details: Homo sapiens;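 also: growth suppression of CAPAN-1 cells, read out by a cell viability assay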
Description: SANGER: Inhibition of human CAPAN-1 cell growth in a cell viability assay.

[36] = tested on: SK-MEL3; test: cells; type: functional, cell-based, SK-MEL-3; details: Homo sapiens;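 also: growth inhibition of human SK-MEL-3 cells, read out with a cell viability assay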
Description: SANGER: Inhibition of human SK-MEL-3 cell growth in a cell viability assay.

[37] = tested on: JEG-3; test: cells; type: functional, cell-based; details: Homo sapiens;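 also: growth inhibition of human JEG-3 cells, read out with a cell viability assay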
Description: SANGER: Inhibition of human JEG-3 cell growth in a cell viability assay.

[38] = tested on: MIA PaCa-2; test: cells; type: functional, cell-based; details: Homo sapiens;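 also: growth inhibition of MIA PaCa-2 cells, read out with a cell viability assay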
Description: SANGER: Inhibition of human MIA-PaCa-2 cell growth in a cell viability assay.

[39] = tested on: SK-LU-1; test: cells; type: functional, cell-based; details: Homo sapiens;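 also: cell viability assay measuring growth inhibition of human SK-LU-1 cells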
Description: SANGER: Inhibition of human SK-LU-1 cell growth in a cell viability assay.

[40] = tested on: HT-1376; test: cells; type: functional, cell-based; details: Homo sapiens
Description: SANGER: Inhibition of human HT-1376 cell growth in a cell viability assay.

[41] = tested on: Daoy; test: cells; type: functional, cell-based; details: Homo sapiens;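 also: daoy cell growth inhibition, read out as cell viability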
Description: SANGER: Inhibition of human Daoy cell growth in a cell viability assay.

[42] = tested on: BCPAP; test: cells; type: functional, cell-based; details: Homo sapiens;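 also: growth inhibition of BCPAP cells, read out in a cell viability assay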
Description: SANGER: Inhibition of human BCPAP cell growth in a cell viability assay.

[43] = tested on: NCI-H292; test: cells; type: functional, cell-based; details: Homo sapiens;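 also: growth inhibition of NCI-H292 cells, read out with a cell viability assay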
Description: SANGER: Inhibition of human NCI-H292 cell growth in a cell viability assay.

[44] = tested on: HSC-3; test: cells; type: functional, cell-based; details: Homo sapiens
Description: SANGER: Inhibition of human HSC-3 cell growth in a cell viability assay.

[45] = tested on: Calu-1; test: SANGER: Inhibition of human Calu-1 cell growth in a cell viability assay.; type: functional, cell-based
[46] = tested on: C-4-II; test: SANGER: Inhibition of human C-4-II cell growth in a cell viability assay.; type: functional, cell-based
[47] = tested on: EW-7; test: SANGER: Inhibition of human EW-7 cell growth in a cell viability assay.; type: functional, cell-based
[48] = tested on: BC1 cell line; test: SANGER: Inhibition of human BC-1 cell growth in a cell viability assay.; type: functional, cell-based; details: Homo sapiens, BC1
[49] = tested on: NCI-H1436; test: cells; type: functional, cell-based, Homo sapiens; details: Homo sapiens, NCI-H1436;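 also: growth suppression of human NCI-H1436 cells, determined with a cell viability readout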
Description: SANGER: Inhibition of human NCI-H1436 cell growth in a cell viability assay.

[50] = tested on: NCI-H719; test: cells; type: functional, cell-based, Homo sapiens; details: Homo sapiens, NCI-H719;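 also: growth inhibition of the cultured cell line, read out with a viability assay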
Description: SANGER: Inhibition of human NCI-H719 cell growth in a cell viability assay.

[51] = tested on: PF-382; test: cells; type: functional, cell-based, Homo sapiens; details: Homo sapiens, PF-382
Description: SANGER: Inhibition of human PF-382 cell growth in a cell viability assay.

[52] = tested on: CHP-126; test: cells; type: functional, cell-based, Homo sapiens; details: Homo sapiens, CHP-126
Description: SANGER: Inhibition of human CHP-126 cell growth in a cell viability assay.

[53] = tested on: NCI-H2107; test: SANGER: Inhibition of human NCI-H2107 cell growth in a cell viability assay.; type: functional, cell-based
[54] = tested on: EW-12; test: SANGER: Inhibition of human EW-12 cell growth in a cell viability assay.; type: functional, cell-based; details: Homo sapiens, EW-12

SMILES: CN(NC(=O)CC(=O)NN(C)C(=S)c1ccccc1)C(=S)c1ccccc1 [ELESCLOMOL]
IC50 [1]: > 200 nM
IC50 [2]: 10.7 nM
IC50 [3]: 22.2 nM
IC50 [4]: > 200 nM
IC50 [5]: > 200 nM
IC50 [6]: 9.62 nM
IC50 [7]: 3.75 nM
IC50 [8]: 3.68 nM
IC50 [9]: 23.4 nM
IC50 [10]: 47.9 nM
IC50 [11]: 33.5 nM
IC50 [12]: > 200 nM
IC50 [13]: 13.6 nM
IC50 [14]: 38.3 nM
IC50 [15]: 9.63 nM
IC50 [16]: 6.64 nM
IC50 [17]: 15.8 nM
IC50 [18]: > 200 nM
IC50 [19]: 3.99 nM
IC50 [20]: 135 nM
IC50 [21]: 7.25 nM
IC50 [22]: 6.9 nM
IC50 [23]: 26.3 nM
IC50 [24]: > 200 nM
IC50 [25]: 3.13 nM
IC50 [26]: > 200 nM
IC50 [27]: > 200 nM
IC50 [28]: 12 nM
IC50 [29]: 7.34 nM
IC50 [30]: 37.1 nM
IC50 [31]: 108 nM
IC50 [32]: 107 nM
IC50 [33]: 30.9 nM
IC50 [34]: > 200 nM
IC50 [35]: > 200 nM
IC50 [36]: > 200 nM
IC50 [37]: 8.84 nM
IC50 [38]: 17.1 nM
IC50 [39]: 10.3 nM
IC50 [40]: > 200 nM
IC50 [41]: 16.8 nM
IC50 [42]: 1.34 nM
IC50 [43]: 0.886 nM
IC50 [44]: 3.02 nM

IC50 [45]: > 512 nM
IC50 [5]: > 512 nM
IC50 [21]: 140 nM
IC50 [26]: > 512 nM
IC50 [30]: 168 nM
IC50 [44]: > 512 nM
SMILES: CO[C@@H]1[C@H](N(C)C(=O)c2ccccc2)C[C@H]2O[C@]1(C)n1c3ccccc3c3c4c(c5c6ccccc6n2c5c31)C(=O)NC4 [MIDOSTAURIN]
IC50 [46]: 349 nM
IC50 [47]: > 512 nM
IC50 [48]: > 512 nM

SMILES: NC(=O)c1ccc(N(C(N)=O)c2c(F)cccc2F)nc1-c1ccc(F)cc1F [VX-702]
IC50 [1]: > 2000 nM
IC50 [2]: > 2000 nM
IC50 [3]: > 2000 nM
IC50 [4]: > 2000 nM
IC50 [5]: 1770 nM
IC50 [6]: > 2000 nM
IC50 [7]: > 2000 nM
IC50 [8]: > 2000 nM
IC50 [9]: > 2000 nM
IC50 [10]: > 2000 nM
IC50 [11]: > 2000 nM
IC50 [12]: > 2000 nM
IC50 [13]: > 2000 nM
IC50 [14]: > 2000 nM
IC50 [15]: > 2000 nM
IC50 [16]: > 2000 nM
IC50 [17]: > 2000 nM
IC50 [18]: > 2000 nM
IC50 [19]: > 2000 nM
IC50 [20]: > 2000 nM
IC50 [21]: > 2000 nM
IC50 [22]: > 2000 nM
IC50 [23]: > 2000 nM
IC50 [24]: > 2000 nM
IC50 [25]: > 2000 nM
IC50 [26]: > 2000 nM
IC50 [27]: > 2000 nM
IC50 [28]: > 2000 nM
IC50 [29]: > 2000 nM
IC50 [30]: > 2000 nM
IC50 [31]: > 2000 nM
IC50 [32]: > 2000 nM
IC50 [33]: > 2000 nM
IC50 [34]: 654 nM
IC50 [35]: > 2000 nM
IC50 [36]: > 2000 nM
IC50 [37]: > 2000 nM
IC50 [38]: > 2000 nM
IC50 [39]: > 2000 nM
IC50 [40]: > 2000 nM
IC50 [41]: > 2000 nM
IC50 [42]: > 2000 nM
IC50 [43]: > 2000 nM
IC50 [44]: > 2000 nM

SMILES: Cc1cc(N2CCOCC2)cc2[nH]c(-c3c(NC[C@@H](O)c4cccc(Cl)c4)cc[nH]c3=O)nc12
IC50 [49]: > 5120 nM
IC50 [16]: > 5120 nM
IC50 [50]: > 5120 nM
IC50 [51]: > 5120 nM
IC50 [27]: > 5120 nM
IC50 [52]: > 5120 nM
IC50 [48]: > 5120 nM
IC50 [53]: > 5120 nM
IC50 [54]: > 5120 nM
